Measurements reported in ChEMBL document CHEMBL3885861, “Open TG-GATES”.

Species: Rattus norvegicus
Test: Open TG-GATES - Regimen: Single
Type: toxicity, organism-based, Sprague-Dawley
Design: regimen Single, gender Male, age 6 weeks
Conditions: in vivo, po, 0 mg/kg, route gavage, dose level Control; for APTT / Bas / Eos / Fbg / Hb / Ht / Lym / MCH / MCHC / MCV / Mono / Neu / PT / Plat / RBC / Ret / WBC: tissue Blood; for KIDNEY_L / KIDNEY_R / KIDNEY_TOTAL: tissue Kidney; for LIVER: tissue Liver; for A/G / ALP / ALT / AST / BUN / CRE / Ca / Cl / DBIL / GLC / IP / K / LDH / Na / PL / RALB / TBIL / TC / TG / TP / gamma-GTP: tissue Plasma

Compound: OCCOCCN1CCN(C(c2ccccc2)c2ccc(Cl)cc2)CC1 (configuration not stated) [HYDROXYZINE]
- TERMINAL_BW (3 h): 191.8 g
- APTT (3 h): 16.4 s
- Bas (3 h): 0%
- Eos (3 h): 0.8%
- Fbg (3 h): 287 mg/dL
- Hb (3 h): 13.2 g/dL
- Ht (3 h): 41%
- Lym (3 h): 78%
- MCH (3 h): 21.5 pg
- MCHC (3 h): 32.3%
- MCV (3 h): 66.6 fL
- Mono (3 h): 3%
- Neu (3 h): 17.4%
- PT (3 h): 15.4 s
- Plat (3 h): 120.7 x10_4/uL
- RBC (3 h): 616 x10_4/ul
- Ret (3 h): 8.7%
- WBC (3 h): 71.8 x10_2/uL
- KIDNEY_L (3 h): 0.9 g
- KIDNEY_R (3 h): 0.9 g
- KIDNEY_TOTAL (3 h): 1.7 g
- LIVER (3 h): 8.6 g
- A/G (3 h): 0.8
- ALP (3 h): 1501.4 IU/L
- ALT (3 h): 41 IU/L
- AST (3 h): 73 IU/L
- BUN (3 h): 9 mg/dL
- CRE (3 h): 0.2 mg/dL
- Ca (3 h): 10.9 mg/dL
- Cl (3 h): 106 meq/L
- DBIL (3 h): 0.012 mg/dL
- GLC (3 h): 176.8 mg/dL
- IP (3 h): 9.2 mg/dL
- K (3 h): 4.2 meq/L
- LDH (3 h): 61.8 IU/L
- Na (3 h): 141.8 meq/L
- PL (3 h): 138.6 mg/dL
- RALB (3 h): 2.5 g/dL
- TBIL (3 h): 0.056 mg/dL
- TC (3 h): 75.4 mg/dL
- TG (3 h): 68.8 mg/dL
- TP (3 h): 5.4 g/dL
- gamma-GTP (3 h): 1 IU/L
- TERMINAL_BW (6 h): 194.9 g
- APTT (6 h): 16.3 s
- Bas (6 h): 0%
- Eos (6 h): 0.4%
- Fbg (6 h): 298.6 mg/dL
- Hb (6 h): 13.1 g/dL
- Ht (6 h): 40.8%
- Lym (6 h): 76.2%
- MCH (6 h): 21.7 pg
- MCHC (6 h): 32.1%
- MCV (6 h): 67.5 fL
- Mono (6 h): 2.4%
- Neu (6 h): 20.4%
- PT (6 h): 15.3 s
- Plat (6 h): 116.6 x10_4/uL
- RBC (6 h): 604 x10_4/ul
- Ret (6 h): 9%
- WBC (6 h): 60.3 x10_2/uL
- KIDNEY_L (6 h): 0.9 g
- KIDNEY_R (6 h): 0.9 g
- KIDNEY_TOTAL (6 h): 1.8 g
- LIVER (6 h): 8.5 g
- A/G (6 h): 0.9
- ALP (6 h): 1502.2 IU/L
- ALT (6 h): 36.4 IU/L
- AST (6 h): 68.8 IU/L
- BUN (6 h): 9.2 mg/dL
- CRE (6 h): 0.2 mg/dL
- Ca (6 h): 10.9 mg/dL
- Cl (6 h): 105.2 meq/L
- DBIL (6 h): 0.012 mg/dL
- GLC (6 h): 183.6 mg/dL
- IP (6 h): 9.9 mg/dL
- K (6 h): 4.2 meq/L
- LDH (6 h): 56.2 IU/L
- Na (6 h): 141.6 meq/L
- PL (6 h): 147.6 mg/dL
- RALB (6 h): 2.5 g/dL
- TBIL (6 h): 0.058 mg/dL
- TC (6 h): 81.4 mg/dL
- TG (6 h): 52.6 mg/dL
- TP (6 h): 5.3 g/dL
- gamma-GTP (6 h): 0.8 IU/L
- TERMINAL_BW (9 h): 191 g
- APTT (9 h): 16.5 s
- Bas (9 h): 0%
- Eos (9 h): 0.8%
- Fbg (9 h): 260.4 mg/dL
- Hb (9 h): 12.9 g/dL
- Ht (9 h): 39.9%
- Lym (9 h): 73.4%
- MCH (9 h): 20.5 pg
- MCHC (9 h): 32.4%
- MCV (9 h): 63.5 fL
- Mono (9 h): 2.6%
- Neu (9 h): 22.4%
- PT (9 h): 15.2 s
- Plat (9 h): 110.7 x10_4/uL
- RBC (9 h): 631.2 x10_4/ul
- Ret (9 h): 8.2%
- WBC (9 h): 82.7 x10_2/uL
- KIDNEY_L (9 h): 0.9 g
- KIDNEY_R (9 h): 0.9 g
- KIDNEY_TOTAL (9 h): 1.8 g
- LIVER (9 h): 7.9 g
- A/G (9 h): 0.9
- ALP (9 h): 1265.6 IU/L
- ALT (9 h): 38 IU/L
- AST (9 h): 75 IU/L
- BUN (9 h): 9.4 mg/dL
- CRE (9 h): 0.1 mg/dL
- Ca (9 h): 10.6 mg/dL
- Cl (9 h): 105.4 meq/L
- DBIL (9 h): 0.012 mg/dL
- GLC (9 h): 176.2 mg/dL
- IP (9 h): 10.1 mg/dL
- K (9 h): 4.2 meq/L
- LDH (9 h): 55.4 IU/L
- Na (9 h): 142 meq/L
- PL (9 h): 129.4 mg/dL
- RALB (9 h): 2.5 g/dL
- TBIL (9 h): 0.068 mg/dL
- TC (9 h): 76.8 mg/dL
- TG (9 h): 21 mg/dL
- TP (9 h): 5.4 g/dL
- gamma-GTP (9 h): 1 IU/L
- TERMINAL_BW (24 h): 204.1 g
- APTT (24 h): 15.6 s
- Bas (24 h): 0.2%
- Eos (24 h): 0.8%
- Fbg (24 h): 275.8 mg/dL
- Hb (24 h): 13.1 g/dL
- Ht (24 h): 40.4%
- Lym (24 h): 80.2%
- MCH (24 h): 21.6 pg
- MCHC (24 h): 32.6%
- MCV (24 h): 66.3 fL
- Mono (24 h): 2.6%
- Neu (24 h): 15.8%
- PT (24 h): 16 s
- Plat (24 h): 114.8 x10_4/uL
- RBC (24 h): 609.2 x10_4/ul
- Ret (24 h): 7.1%
- WBC (24 h): 63.9 x10_2/uL
- KIDNEY_L (24 h): 0.9 g
- KIDNEY_R (24 h): 0.9 g
- KIDNEY_TOTAL (24 h): 1.8 g
- LIVER (24 h): 9.3 g
- A/G (24 h): 0.9
- ALP (24 h): 1738.8 IU/L
- ALT (24 h): 43.4 IU/L
- AST (24 h): 71 IU/L
- BUN (24 h): 14.8 mg/dL
- CRE (24 h): 0.1 mg/dL
- Ca (24 h): 11.2 mg/dL
- Cl (24 h): 106.6 meq/L
- DBIL (24 h): 0.014 mg/dL
- GLC (24 h): 176.8 mg/dL
- IP (24 h): 7.6 mg/dL
- K (24 h): 4.5 meq/L
- LDH (24 h): 64.4 IU/L
- Na (24 h): 141.4 meq/L
- PL (24 h): 147.8 mg/dL
- RALB (24 h): 2.6 g/dL
- TBIL (24 h): 0.056 mg/dL
- TC (24 h): 75.2 mg/dL
- TG (24 h): 75.4 mg/dL
- TP (24 h): 5.7 g/dL
- gamma-GTP (24 h): 0.8 IU/L
